One assay deals with P. falciparum. Conditions: Camp (chloroquine-susceptible) and Smith (chloroquine-resistant) strains; cited from earlier work.
The subject of the next assay is P388 leukemia. Conditions: NCI Report on NSC 369397; cited from earlier work.
For the next assay, the system named is 60 cell line panel. Conditions: cell line panels of 60 lines; cited from earlier work.
In another assay the test system is HL-60(TB). The assay is described as follows: cells. Conditions: Homo sapiens.
For assay [1], the system named is P. vivax and P. falciparum. Conditions: cited from earlier work.
The test system of another assay is RPMI-8226. Nature of the assay: cells. The class given is cell-based. Conditions: Homo sapiens.
In assay [2] the test system is murine keratinocyte cell line PE. The assay is described as follows: growth inhibition of PE cells (MTT assay). The class given is cell-based. Conditions: 100 nanomolar. The protocol: To determine the inhibitory effect of the compositions of the present invention on cell proliferation, screening assays were performed on a murine keratinocyte cell line PE. Cell line PE was chosen for its particular sensitivity to the induction of ornithine decarboxylase (ODC) activity by the extensively characterized tumor promoter TPA. […] PE cell culture medium consisted of Eagle's minimal essential medium without calcium chloride (Whittaker Bioproducts, Walkersville, Mass.) supplemented with 8% chelexed fetal calf serum and 1% antibiotic-antimycotic (Gibco BRL) and the addition of CaCl2 to 0.05 mM Ca^++.
Growth Inhibition. Growth curves, shown in FIGS. 1 and 2, for PE cells treated with calcitriol and the C-10 carbon-substituted dimers 21, 22, 26, 27, and 28 generated by assay for the reduction of the tetrazolium-based compound MTT, see Charmichael, et al., Cancer Res., 47:936-942 (1987). […] PE cells were seeded at a density of 5,000 cells/well in 50 μL of medium into 96-well microtiter plates. Twelve hours later, the medium was removed, and cells were treated with 100 μL of fresh medium into which the appropriate amount of calcitrol or analog dissolved in dimethyl sulfoxide (DMSO) had been added, with the concentration of DMSO held constant at 0.1%. […] At 24-hour intervals following the initial treatment of the cells with compounds, 0.1 mg (50 μL of a 2 mg/mL solution) of MTT was added to each well. After 4 hours, the MTT was removed and DMSO added to dissolve the blue formazan dye. Using a microtiter plate reader, the A505 was then determined and cell number calculated from blank-subtracted absorbance values.
(Tetrazolium assays rely on reduction of a dye to a coloured formazan, in cell work by metabolically active cells.)

Structures are written as SMILES.

In the case of `C[C@@H]1CC[C@H]2[C@@H](C)C(=O)O[C@@H]3O[C@@]4(C)CC[C@@H]1[C@]32OO4` [Artemisinin], in the assay with P. falciparum, the “potency in vitro compared with mefloquine” value is reported as “comparable”. Also, the “activity against P388 leukemia” value in the assay on P388 leukemia is “inactive”. In addition, the anticancer activity entry in the assay with 60 cell line panel is “very little anticancer activity”. In addition, in the assay on HL-60(TB) (HL-60, read-out: Log10 GI50 (converted)), the concentration for 50% growth inhibition (GI50) was 55 µM. Further, the CC50 in the assay with HL-60(TB) (HL-60, read-out: Log10 LC50 (converted)) was over 100 µM; in the assay on RPMI-8226 (read-out: Log10 LC50 (converted)) it was over 100 µM. The IC (TGI) in the assay with HL-60(TB) (HL-60, read-out: Log10 TGI) was 100 µM; in the assay on RPMI-8226 (read-out: Log10 TGI) it was over 100 µM. Besides, the clinical cure result in assay [1] (2099 cases, P. vivax and P. falciparum about 3:1) was “clinical cure of all patients”. Moreover, the suppression of parasitemias entry in assay [1] (P. vivax and P. falciparum) is on record as “effective at suppressing the parasitemias”.

With `C[C@H]1[C@@H](CC(=O)c2ccc(C(=O)C[C@H]3O[C@@H]4O[C@@]5(C)CC[C@H]6[C@H](C)CC[C@@H]([C@H]3C)[C@@]46OO5)cc2)O[C@@H]2O[C@@]3(C)CC[C@H]4[C@H](C)CC[C@@H]1[C@@]24OO3` [Dimer 21], the “antiproliferative activity compared with calcitriol” value in assay [2] was “at least as antiproliferative as calcitrol”.

Broadly, the GI50 is the concentration at which growth is held to half of that of the control.
